Where no end group is shown, it is not given here.
Experiment: Solubility and behaviour in water
Type: physicochemical

GNNQQNY [GNNQQNY]
behaviour of solution in pure water (solubilised in pure water, pH not lowered): tends to spontaneously aggregate
solubility in water (water, no solvent pre-treatment, solution clear and transparent): freely soluble in water

From paper doi:10.1101/2022.01.01.474692v1 (bioRxiv, 2022)
